# “Also recorded” adds a separate entry of the source. Counter-ions that a name gives are not always drawn. Like-named read-outs stand apart in the source and are kept apart here.
# What was measured:
# Asu-ACR-16 [1] = target: T1, Asu-ACR-16 (Ascaris suum (Pig roundworm) (Ascaris lumbricoides), UniProt F1KYJ9); test: cell-based; assay type: cell-based; conditions: for Emax: read-out: maximum response (Imax); for maximum response (Imax): normalized to peak current of 100 μM ACh
# Method: Full-length Asu-acr-16 cRNA and ancillary gene Asu-ric-3 cRNA (UniProtKB Accession No. F1L1D9) were prepared as previously described (Zheng et al. (2016), supra). A cRNA mixture of 25 ng Asu-acr-16 and 5 ng Asu-ric-3 cRNA in 50 nL RNAse-free water was injected into de-folliculated Xenopus laevis oocytes (Ecocyte Bioscience, Austin, Tex., USA). The injected oocytes were incubated in an incubation solution (100 mM NaCl, 2 mM KCl, 1.8 mM CaCl2.2H2O, 1 mM MgCl2.6H20, 5 mM HEPES, 2.5 mM Na-pyruvate, 100 U/mL penicillin, and 100 μg/mL streptomycin, pH 7.5) at 19° C. for 4-8 days, after which 100 μM BAPTA-AM was added three hours before recording.
# Two-electrode voltage clamp electrophysiology was used to determine agonist concentration-current-response plots to estimate the potencies (EC50s) of the agonists. The oocytes were kept in a recording solution (100 mM NaCl, 2.5 mM KCl, 1 mM CaCl2.2H2O, and 5 mM HEPES, pH 7.3) and clamped to −60 mV during recording.
# Inward current signals in the oocytes were induced by the addition of chemicals that acted as agonists opening the nicotinic ion-channel receptors. […] An Axoclamp 2B amplifier (Molecular Devices, Sunnyvale, Calif.) was used to record the currents that were acquired with Clampex 9.2 software (Molecular Devices) and analyzed using GraphPad Prism 5.0 (Graphpad Software, Inc., La Jolla, Calif.).
# Recording solution was then used to wash out the drug from the oocyte for 3 min prior to application of the next chemical perfusion.
# Nicotine derivatives that elicited inward currents at 100 μM were classified as agonists. Increasing concentrations of each nicotine derivative were applied for 10 sec with 3-min wash intervals to determine the dose-response relationship of each agonist. […] Peak responses were recorded and normalized. […] The EC50 and Imax of each agonist were compared using the unpaired student's t-test. P<0.05 was used to evaluate the statistical difference.
# Asu-ACR-16 [2] = target: T1, Asu-ACR-16; test: Two-electrode voltage clamp inhibition of the ACh response of Asu-ACR-16 expressed in Xenopus laevis oocytes; assay type: cell-based
# [3] = agonist dose-response, mean±S.E.M., N=5
# [4] = agonist, currents normalized to 100 μM ACh, oocytes clamped to −60 mV, mean±S.E.M., N=5
# [5] = inward currents at 100 μM classify as agonist
# [6] = inhibition of ACh response, N=5
# T1 sequence (F1KYJ9 1-504): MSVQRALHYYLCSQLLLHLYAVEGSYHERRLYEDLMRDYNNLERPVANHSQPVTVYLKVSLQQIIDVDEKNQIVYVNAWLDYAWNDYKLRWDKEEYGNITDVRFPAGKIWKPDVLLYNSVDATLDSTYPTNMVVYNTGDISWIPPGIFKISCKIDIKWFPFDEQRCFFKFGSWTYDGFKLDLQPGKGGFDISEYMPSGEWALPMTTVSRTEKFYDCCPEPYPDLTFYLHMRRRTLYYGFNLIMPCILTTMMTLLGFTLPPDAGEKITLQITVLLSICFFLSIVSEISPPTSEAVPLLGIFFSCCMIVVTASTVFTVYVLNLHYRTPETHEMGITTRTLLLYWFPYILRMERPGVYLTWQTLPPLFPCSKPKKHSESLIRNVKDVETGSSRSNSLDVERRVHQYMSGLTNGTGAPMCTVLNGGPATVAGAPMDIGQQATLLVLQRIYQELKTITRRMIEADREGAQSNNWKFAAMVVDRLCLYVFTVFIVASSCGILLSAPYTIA
Compound,Hill slope (nH) (Asu-ACR-16 [1]; [3]),Emax (Asu-ACR-16 [1]) [%],"maximum response (Imax) (Asu-ACR-16 [1]; mean±S.E.M., N=5) [%]",also measured
"CN1CCCC1c1cccnc1.O=C(O)C(O)C(O)C(=O)O (single isomer, unassigned; (-)) [(S)-nicotine, (−)-nicotine hydrogen tartrate salt]",,,,Hill slope (nH) (Asu-ACR-16 [1]): 3.39 ± 0.36; agonist activity (in words) (Asu-ACR-16 [1]): potent agonist
"Cc1cncc(C2CCCN2C)c1 (stereo not shown) [5-methyl-nicotine, 5-methylnicotine]",2.09 ± 0.14,76 ± 1.22,,EC50 (Asu-ACR-16 [1]; [4]): 990 ± 170 nM
"NC(=O)c1ccc(N)nc1 [6-AN, 6-aminonicotinamide]",10.10 ± 0.15,6.29 ± 0.62,,"agonist activity (in words) (Asu-ACR-16 [1]; [5]): little agonist activity; IC50 (Asu-ACR-16 [2]): 2000 ± 410 nM; inhibition of ACh response (in words) (Asu-ACR-16 [2]; 100 μM derivative co-applied with 100 μM ACh): most potent inhibitor; mode of antagonism (in words) (Asu-ACR-16 [2]; ACh dose-response in presence of 1 μM 6-AN, concentration- and voltage-dependent inhibition): non-competitive antagonist; Imax (Asu-ACR-16 [2]; [6]): 94.88±1.49%; nH (Asu-ACR-16 [2]; [6]): 1.02±0.05"
"Cc1ccc(C2CCCN2C)cn1 (stereo not shown) [6-methyl-nicotine, 6-methylnicotine]",3.25 ± 0.25,69.8 ± 1.56,,
"CN1CCC[C@H]1c1ccc[n+](C)c1.[I-] [(S)-1-methyl-nicotinium, (S)-1-methylnicotinium iodide]",,,,agonist activity (in words) (Asu-ACR-16 [1]; [5]): did not act as agonists
"C[N+]1(C)CCC[C@H]1c1cccnc1.[I-] [(S)-1′-methyl-nicotinium, (S)-1′-methylnicotinium iodide]",3.52 ± 0.26,,93.38 ± 5.25,
"Brc1cncc([C@@H]2CCCCN2)c1 [(S)-5-bromo-anabasine, (S)-5-bromoanabasine]",4.19 ± 1.58,,80.69 ± 2.87,
"CN1CCC[C@H]1c1cncc(Br)c1 [(S)-5-bromo-nicotine, (S)-5-bromonicotine]",2.46 ± 0.21,69.7 ± 3.28,,EC50 (Asu-ACR-16 [1]; [4]): 2040 ± 120 nM
C#Cc1cncc([C@@H]2CCCCN2)c1 [(S)-5-ethynyl-anabasine],1.81 ± 0.24,,79.33 ± 3.75,EC50 lower (more potent) than (S)-nicotine (Asu-ACR-16 [1]; ratio of EC50 values): 44 times
"C#Cc1cncc([C@@H]2CCCN2C)c1 [(S)-SIB 1508Y, SIB 1508Y maleate]",0.94 ± 0.04,,100.1 ± 4.36,EC50 (Asu-ACR-16 [1]; [4]): 370 ± 100 nM
c1cncc([C@@H]2CCCCN2)c1 [(S)-anabasine],2.26 ± 0.20,,84.82 ± 4.20,
"CN1C(=O)CC[C@H]1c1cccnc1 [(S)-cotinine, (−)-cotinine]",,,,agonist activity (in words) (Asu-ACR-16 [1]; [5]): did not act as agonists
"CN1CCC[C@H]1c1cccnc1 [(S)-nicotine, (−)-nicotine hydrogen tartrate salt]",,82.4 ± 2.52,,EC50 (Asu-ACR-16 [1]): 6210 ± 560 nM
CN1CCC[C@H]1c1cncc(C=O)c1 [(S)-nicotine-5-carboxaldehyde],8.61 ± 4.04,,62.20 ± 6.80,EC50 (Asu-ACR-16 [1]; [4]): 11500 ± 630 nM
"CC(=O)OCC[N+](C)(C)C.[Cl-] [ACh, acetylcholine chloride]",2.93 ± 0.13,,,
"CN1CCCCC1c1cccnc1 (stereo not shown) [N-methyl-anabasine, N-methyl anabasine]",,,,agonist activity (in words) (Asu-ACR-16 [1]; [5]): inactive; also recorded: did not act as agonists
CCN1CCCC1c1cccnc1 (stereo not shown) [homonicotine],6.78 ± 2.50,,22.01 ± 1.39,
"c1cncc([C@@H]2CCCN2)c1 [nornicotine, (+)-nornicotine]",3.25 ± 0.49,62.6 ± 3.42,,
